Test results reported in patent US10920230B2, “Methylotrophs for aquaculture and animal feed” (KnipBio, Inc., priority 2013, dated 2021).
In brackets after ≈: the same amount, converted by molar mass.

Experiments:
[1] = system: PR/cmtO promoter; assay: Fluorescence-based mCherry expression assay, pJP18T; type: cell-based, M. extorquens
Excerpt: (§1) A desirable property for regulated expression systems is for levels of gene expression from the promoter to be proportional to the concentration of inducer. In order to explore the range of induction of PR/cmtO and PR/tetO, the promoters along with their respective regulatory proteins were introduced onto broad-host-range plasmids (IncP compatibility group) to create the expression vectors pLC290 and pLC291 (FIG. 8 in U.S. Ser. No. 61/863,701). […] We placed the red-fluorescent protein variant mCherry under the control of each promoter in pLC290 and pLC291 and introduced the resulting vectors (pJP18T and pJP22T) into M. extorquens. To induce expression from PR/cmtO and PR/tetO, we supplied varied concentrations of cumate (Q) and anhydrotetracycline (aTc), respectively, to M. extorquens cultures.
(§2) Assays to measure levels of mCherry protein expression were performed as follows. For dose-dependent response curves, M. extorquens strains harboring pJP18T or pJP22T were grown to saturation in 10 mL of Hypho-succinate medium. […] Cultures were allowed to continue growth for an additional 24 hours prior to fluorescence (excitation 587 nm/emission 610 nm) and optical density (600 nm) measurements made using a Tecan Safire2 plate reader. Relative fluorescence values reported are: Relative fluorescence (A.U.)=RFU/OD600*10^−3.

[2] = system: PR/tetO promoter; assay: Fluorescence-based mCherry expression assay, pJP22T; type: cell-based, M. extorquens
Excerpt: as §1, §2

[3] = system: cumate inducible PmxaF promoter; assay: Fluorescence-based mCherry expression assay, pHC115m; type: cell-based, M. extorquens; details: uninduced 15.6±1.5
Procedure: Assays to measure levels of mCherry protein expression were performed as follows. For dose-dependent response curves, M. extorquens strains harboring pJP18T or pJP22T were grown to saturation in 10 mL of Hypho-succinate medium. These cultures were then diluted 1:200 in fresh medium, followed by 630 μL aliquots being dispensed to clear, flat-bottom, 48-well microtiter plates (Costar). Cultures were grown for 4 hours on a plate shaking tower (Caliper) at 150 rpm in a 30° C. humidified room. After 4 hours of growth, 10 μl of fresh medium containing Q or aTc was added to supply Q and aTc at desired concentrations. Cultures were allowed to continue growth for an additional 24 hours prior to fluorescence (excitation 587 nm/emission 610 nm) and optical density (600 nm) measurements made using a Tecan Safire2 plate reader. Relative fluorescence values reported are: Relative fluorescence (A.U.)=RFU/OD600*10^−3.

[4] = system: wild-type B. fungorum LB400; assay: microbe, parasite or virus in culture; details: Paraburkholderia fungorum
Procedure: The minimal inhibitory concentration (MIC) of formaldehyde was determined by comparing the rate and extent of colony formation of wild-type B. fungorum LB400 to that of the flhA mutants CM363K.1 and CM363.1 on solid medium containing succinate as a growth substrate with various concentrations of formaldehyde. Formaldehyde was added to the plates immediately prior to the addition of the molten agar.

SMILES: CC(C)c1ccc(C(=O)O)cc1 [Q, p-isopropyl benzoate]
- induction (regulatory range) ([1]; induced versus uninduced): 10 fold
- relative fluorescence (crosstalk) ([2]; pJP22T with the non-cognate inducer, grown in succinate, uninduced 1.0): 1.1 A.U.
- relative fluorescence, induced [3]: 157.1±3.7 A.U.

SMILES: Cc1c2c(c(O)c3c(O)cccc13)C(=O)[C@]1(O)C(=O)C(C(N)=O)=C(O)[C@@H](N(C)C)[C@@H]1C2 [aTc, anhydrotetracycline]
- relative fluorescence (crosstalk) ([1]; pJP18T with the non-cognate inducer, grown in succinate, uninduced 4.6): 4.2 A.U.
- induction (regulatory range) ([2]; induced versus uninduced): 30 fold

SMILES: C=O [formaldehyde]
- MIC [4]: 200 µM (≈ 6.01 µg/mL)
